{
  "source": "patent US8278344B2",
  "about": "“Heterocyclic inhibitors of necroptosis” (The Brigham and Women's Hospital, Inc., priority 2007, dated 2012)",
  "data": [
    {"tested_on": "not listed separately", "experiment": "Microsome stability in pooled mouse liver microsomes", "type": "in vitro ADME", "settings": "3 μM compound, 0.5 mg/mL microsome protein, 1 mM NADPH", "protocol": "(§1) Microsome stability was determined in pooled mouse liver microsomes. Test compound (3 μM final concentration) along with 0.5 mg/mL microsome protein and 1 mM NADPH was incubated for 0, 5, 15, 30 and 60 minutes. Incubation of test compound and microsomes in the absence of NADPH served as a negative control. The samples were quenched with methanol and centrifuged for 20 minutes at 2500 rpm to precipitate proteins. Sample supernatants were analyzed (N=3) by LC/MS. The In peak area ratio (compound peak area/internal standard peak area) was plotted against time and the slope of the line determined to give the elimination rate constant [k=(−1)(slope)]. The half life (t1/2 in minutes), and the in vitro intrinsic clearance (CLint in μL/min/mg protein) were calculated according to the following equations, where V=incubation volume in μL/mg protein: […]", "units": {"half-life at 3 μM": "min"}, "values": [
      {"smiles": "Cn1c(Cl)ccc1C(=O)NCc1c(F)cccc1Cl", "note": "[Compound 78]", "half-life at 3 μM": 15.4},
      {"smiles": "Cn1cccc1C(=O)NCc1c(F)cccc1Cl", "note": "[Compound 84]", "half-life at 3 μM": 17.2},
      {"smiles": "Cn1c(C#N)ccc1C(=O)NCc1c(F)cccc1Cl", "note": "[Compound 94]", "half-life at 3 μM": 42.3},
      {"smiles": "C[C@H](NC(=O)c1ccc(C#N)n1C)c1c(F)cccc1Cl", "note": "[Compound 97]", "half-life at 3 μM": 236}
    ]},
    {"tested_on": "not listed separately", "experiment": "Microsome stability in pooled mouse liver microsomes", "type": "in vitro ADME", "settings": "in vitro intrinsic clearance, 3 μM compound, 0.5 mg/mL microsome protein, 1 mM NADPH, N=3, read-out: CLint (μL/minutes/mg protein)", "protocol": "as §1", "units": {"microsomal CLint at 3 μM": "µL/min/mg"}, "values": [
      {"smiles": "Cn1c(Cl)ccc1C(=O)NCc1c(F)cccc1Cl", "note": "[Compound 78]", "microsomal CLint at 3 μM": "89.8 ± 3"},
      {"smiles": "Cn1cccc1C(=O)NCc1c(F)cccc1Cl", "note": "[Compound 84]", "microsomal CLint at 3 μM": "80.6 ± 4.4"},
      {"smiles": "Cn1c(C#N)ccc1C(=O)NCc1c(F)cccc1Cl", "note": "[Compound 94]", "microsomal CLint at 3 μM": "32.8 ± 2.2"},
      {"smiles": "C[C@H](NC(=O)c1ccc(C#N)n1C)c1c(F)cccc1Cl", "note": "[Compound 97]", "microsomal CLint at 3 μM": "5.9 ± 2.5"}
    ]},
    {"tested_on": "FADD-deficient variant of human Jurkat T cells", "experiment": "Necroptosis inhibition in FADD-deficient Jurkat T cells treated with TNF-α, ATP-based viability", "type": "cell-based", "settings": "Jurkat; Table 2, Formula (I-a); 10 ng/mL human TNF-α, 24 hours; standard deviation <10%", "protocol": "(§2) Stock solutions (30 mM) in DMSO were initially prepared and then diluted with DMSO to give testing solutions, which were added to each test well. The final DMSO concentration was 0.5%. Eleven compound test concentrations (0.030-100 μM) were used. Each concentration was done in duplicate.\n(§3) Cell viability assessments were performed using a commercial luminescent ATP-based assay kit (CellTiter-Glo, Promega, Madison, Wis.) according to the manufacturer's instructions. Briefly, 40 μL of the cell lysis/ATP detection reagent was added to each well. Plates were incubated on a rocking platform for 10 minutes at room temperature and luminescence was measured using a Wallac Victor 3 plate-reader (Perkin Elmer, Wellesley, Mass.). Cell viability was expressed as a ratio of the signal in the well treated with TNF-α and compound to the signal in the well treated with compound alone. […] EC50 values were calculated using nonlinear regression analysis of sigmoid dose-response (variable slope) curves from plots of log[I] verses viability values.", "units": {"EC50": "nM"}, "values": [
      {"smiles": "O=C(NCc1c(F)cccc1Cl)c1snnc1C1CCC1", "note": "[Compound 33]", "EC50": 600},
      {"smiles": "O=C(NCc1c(F)cccc1Cl)c1snnc1C1CCCC1", "note": "[Compound 34]", "EC50": 1900},
      {"smiles": "O=C(NCc1c(F)cccc1Cl)c1snnc1C1CCCCC1", "note": "[Compound 35]", "EC50": 6000},
      {"smiles": "CC(C)(C)c1nnsc1C(=O)NCc1c(F)cccc1Cl", "note": "[Compound 36]", "EC50": 18000},
      {"smiles": "O=C(NCc1c(F)cccc1Cl)c1snnc1-c1ccccc1", "note": "[Compound 37]", "EC50": "> 100000"},
      {"smiles": "O=C(NCc1c(F)cccc1F)c1snnc1C1CC1", "note": "[Compound 39]", "EC50": 1500},
      {"smiles": "O=C(NCc1ccccc1F)c1snnc1C1CC1", "note": "[Compound 40]", "EC50": 1500},
      {"smiles": "Cc1cccc(Cl)c1CNC(=O)c1snnc1C1CC1", "note": "[Compound 41]", "EC50": 10000},
      {"smiles": "O=C(NCc1c(F)cccc1C(F)(F)F)c1snnc1C1CC1", "note": "[Compound 44]", "EC50": "> 100000"},
      {"smiles": "O=C(NCc1cccc2ccccc12)c1snnc1C1CC1", "note": "[Compound 45]", "EC50": "> 100000"}
    ]},
    {"tested_on": "FADD-deficient variant of human Jurkat T cells", "experiment": "Necroptosis inhibition in FADD-deficient Jurkat T cells treated with TNF-α, ATP-based viability", "type": "cell-based", "settings": "Jurkat; Table 3, Formula (I-b); 10 ng/mL human TNF-α, 24 hours", "protocol": "as §2, §3", "units": {"EC50": "nM"}, "values": [
      {"smiles": "Fc1cccc(Cl)c1CNCc1snnc1C1CC1", "note": "[Compound 13]", "EC50": "> 100000"},
      {"smiles": "O=C(NC(=O)c1c(F)cccc1Cl)c1snnc1C1CC1", "note": "[Compound 16]", "EC50": "> 100000"}
    ]},
    {"tested_on": "FADD-deficient variant of human Jurkat T cells", "experiment": "Necroptosis inhibition in FADD-deficient Jurkat T cells treated with TNF-α, ATP-based viability", "type": "cell-based", "settings": "Jurkat; Table 5, pyrrole compounds; 10 ng/mL human TNF-α, 24 hours", "protocol": "as §2, §3", "units": {"EC50": "nM"}, "values": [
      {"smiles": "CC(NC(=O)c1cccn1C(C)C)c1c(F)cccc1Cl", "note": "(racemic) [Compound 89]", "EC50": 2100},
      {"smiles": "CCCCC(NC(=O)c1cccn1C(C)C)c1c(F)cccc1Cl", "note": "(racemic) [Compound 92]", "EC50": "> 20000"},
      {"smiles": "Cn1c(Cl)ccc1C(=O)NCc1c(F)cccc1Cl", "note": "[Compound 78]", "EC50": 740},
      {"smiles": "O=C(NCc1c(F)cccc1Cl)c1ccc[nH]1", "note": "[Compound 80]", "EC50": "> 20000"},
      {"smiles": "Cc1cc[nH]c1C(=O)NCc1c(F)cccc1Cl", "note": "[Compound 81]", "EC50": 4900},
      {"smiles": "Cc1ccn(C)c1C(=O)NCc1c(F)cccc1Cl", "note": "[Compound 82]", "EC50": "> 20000"},
      {"smiles": "Cc1ccn(C(C)C)c1C(=O)NCc1c(F)cccc1Cl", "note": "[Compound 83]", "EC50": 7800},
      {"smiles": "Cn1cccc1C(=O)NCc1c(F)cccc1Cl", "note": "[Compound 84]", "EC50": 900},
      {"smiles": "CC(C)n1cccc1C(=O)NCc1c(F)cccc1Cl", "note": "[Compound 85]", "EC50": 440},
      {"smiles": "O=C(NCc1c(F)cccc1Cl)c1cccn1Cc1ccccc1", "note": "[Compound 86]", "EC50": "> 20000"},
      {"smiles": "CC(c1ccccc1)n1cccc1C(=O)NCc1c(F)cccc1Cl", "note": "(stereo not drawn) [Compound 87]", "EC50": "> 20000"},
      {"smiles": "CN(Cc1c(F)cccc1Cl)C(=O)c1cccn1C", "note": "[Compound 88]", "EC50": "> 20000"},
      {"smiles": "CC(C)n1cccc1C(=O)N[C@@H](C)c1c(F)cccc1Cl", "note": "[Compound 90]", "EC50": 520},
      {"smiles": "CC(C)n1cccc1C(=O)N[C@H](C)c1c(F)cccc1Cl", "note": "[Compound 91]", "EC50": "> 20000"},
      {"smiles": "CCn1c(Br)ccc1C(=O)NCc1c(F)cccc1Cl", "note": "[Compound 93]", "EC50": 2400},
      {"smiles": "Cn1c(C#N)ccc1C(=O)NCc1c(F)cccc1Cl", "note": "[Compound 94]", "EC50": 340},
      {"smiles": "CCn1c(C#N)ccc1C(=O)NCc1c(F)cccc1Cl", "note": "[Compound 95]", "EC50": 1900},
      {"smiles": "CC(C)n1c(C#N)ccc1C(=O)NCc1c(F)cccc1Cl", "note": "[Compound 96]", "EC50": 1400},
      {"smiles": "Cn1cc(C#N)cc1C(=O)NCc1c(F)cccc1Cl", "note": "[Compound 98]", "EC50": "> 20000"},
      {"smiles": "CC(C)n1cc(C#N)cc1C(=O)NCc1c(F)cccc1Cl", "note": "[Compound 99]", "EC50": "> 20000"}
    ]},
    {"tested_on": "FADD-deficient variant of human Jurkat T cells", "experiment": "Necroptosis inhibition in FADD-deficient Jurkat T cells treated with TNF-α, ATP-based viability", "type": "cell-based", "settings": "TNF-α treated FADD-deficient Jurkat T cells", "protocol": "as §2, §3", "values": [
      {"smiles": "Fc1cccc(Cl)c1CNCc1snnc1C1CC1", "note": "[Compound 13]", "necroptosis inhibitory activity in words": "inactive"},
      {"smiles": "O=C(NC(=O)c1c(F)cccc1Cl)c1snnc1C1CC1", "note": "[Compound 16]", "necroptosis inhibitory activity in words": "inactive"}
    ]}
  ]
}
